This passage reports EC50 results from patent US11498903B2 (BRISTOL-MYERS SQUIBB COMPANY, priority 2017, dated 2022).

In this assay the target is T1, human APJ receptor (Homo sapiens, UniProt P35414).
T1 construct: expressed in transfected cells
T1 sequence (P35414 1-380): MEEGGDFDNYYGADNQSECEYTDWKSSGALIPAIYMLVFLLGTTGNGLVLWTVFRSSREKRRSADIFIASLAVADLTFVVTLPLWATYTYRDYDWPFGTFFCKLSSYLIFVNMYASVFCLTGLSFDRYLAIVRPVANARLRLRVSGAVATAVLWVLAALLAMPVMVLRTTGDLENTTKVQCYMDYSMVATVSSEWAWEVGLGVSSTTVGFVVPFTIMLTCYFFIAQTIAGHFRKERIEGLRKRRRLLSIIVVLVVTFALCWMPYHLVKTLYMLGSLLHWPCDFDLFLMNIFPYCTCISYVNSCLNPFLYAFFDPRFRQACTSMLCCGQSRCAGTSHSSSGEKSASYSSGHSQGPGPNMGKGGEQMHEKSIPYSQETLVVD
The assay is described as follows: Intracellular cAMP accumulation assay (APJ hcAMP, HTRF). The format is cell-based. The settings on record: HEK293 cells stably expressing human APJ receptor. The protocol:
Intracellular cAMP Accumulation Assay
HEK293 cells stably expressing human APJ receptor were used to assess the activity of compounds. Cultured cells were detached and resuspended in the cAMP Homogeneous Time-Resolved Fluorescence (HTRF) assay buffer (Cisbio cat; #62AM4PEJ). The assay was performed in 384-well assay plates (Perkin-Elmer; cat #6008289) according to assay protocol provided by the manufacturer. Serial dilutions of a compound together with assay buffer containing […] IBMX and 2 μM forskolin were added to each well containing 5,000 cells and incubated for 30 minutes at room temperature. Subsequently, cAMP D2 reagent was added in the lysis buffer followed by the EuK antibody (Cisbio; cat #62AM4PEJ) and incubated for 60 min. The fluorescence emission ratio was measured using fluorometer. The intracellular cAMP concentrations (compound-stimulated inhibition of forskolin-mediated cAMP production) were calculated by extrapolation from a standard curve using known cAMP concentrations. The EC50 values were obtained by fitting the data to a sigmoidal concentration-response curve with variable slope. The maximal achievable inhibition of forskolin-induced cAMP levels (Ymax) for each compound was expressed as relative percentage of inhibition attained using pyroglutamated apelin-13 ((Pyrl)apelin-13) peptide, which was set to 100%.
The exemplified Examples disclosed below were tested in the APJ in vitro assays described above and were found having human APJ cyclic AMP (hcAMP) activity. Table 1 lists hcAMP EC50 values measured for the following examples. Ranges are as followε: A=0.0-10 nM; B=10.01-100 nM; C=101-500 nM.
(Changes in cAMP serve as a functional read-out for many G protein-coupled receptors.)

The mark [1] stands for this setting: Table 1, inhibition of forskolin-mediated cAMP production, read-out: APJ hcAMP EC50.
Setting [2] is: Table 3, read-out: APJ cAMP Human EC50.

Read-outs that look alike come from different tables or passages of the source.

By EC50 is commonly meant the concentration needed to bring the measured effect to its halfway point. Take `CCC[C@@H](NC(=O)c1ccc(-c2c(Cl)cccc2-c2nc3ccccc3[nH]2)c(C(=O)O)c1)c1ccccc1` (atropisomer, axis not shown) [Example 81, (S)-2′-(1H-benzo[d]imidazol-2-yl)-6′-chloro-4-(((R)-1-phenylbutyl)carbamoyl)-[1,1′-biphenyl]-2-carboxylic acid]: the EC50 under setting [1] was < 10 nM and the EC50 under setting [2] is < 10 nM.
Turning to `COC[C@@H](NC(=O)c1ccc(-c2c(Cl)cccc2-c2nc3ccccc3[nH]2)c(C(=O)O)c1)c1ccccc1` (atropisomer, axis not shown) [Example 82, (S)-2′-(1H-benzo[d]imidazol-2-yl)-6′-chloro-4-(((S)-2-methoxy-1-phenylethyl)carbamoyl)-[1,1′-biphenyl]-2-carboxylic acid], the EC50 under setting [2] is 10 to 100 nM.
Still for that read-out and setting: then `CCC[C@@H](NC(=O)c1ccc(-c2c(Cl)cccc2-c2nc3cc(OC)c(F)cc3[nH]2)c(C(=O)OC)c1)c1ccccc1` (atropisomer, axis not shown) [Example 83, methyl (S)-2′-chloro-6′-(6-fluoro-5-methoxy-1H-benzo[d]imidazol-2-yl)-4-(((R)-1-phenylbutyl)carbamoyl)-[1,1′-biphenyl]-2-carboxylate], with 10 to 100 nM; and `CCC[C@@H](NC(=O)c1ccc(-c2c(Cl)cccc2-c2nc3cc(Cl)c(F)cc3[nH]2)c(C(=O)O)c1)c1ccccc1` (atropisomer, axis not shown) [Example 85, (S)-2′-chloro-6′-(5-chloro-6-fluoro-1H-1,3-benzodiazol-2-yl)-4-{[(1R)-1-phenylbutyl]carbamoyl}-[1,1′-biphenyl]-2-carboxylic acid], with < 10 nM.
The same measure, in the same setting: next, `CCC[C@@H](NC(=O)c1ccc(-c2c(Cl)cccc2-c2nc3cc(Cl)c(F)cc3[nH]2)c(C(=O)OC)c1)c1ccccc1` (atropisomer, axis not shown) [Example 86, (S)-methyl 2′-chloro-6′-(5-chloro-6-fluoro-1H-1,3-benzodiazol-2-yl)-4-{[(1R)-1-phenylbutyl]carbamoyl}-[1,1′-biphenyl]-2-carboxylate]: 101 to 500 nM.
For `CCC[C@@H](NC(=O)c1ccc(-c2c(Cl)cccc2-c2nc3cc(O)c(F)cc3[nH]2)c(C(=O)O)c1)c1ccccc1` (atropisomer, axis not shown) [Example 87, (S)-2′-chloro-6′-(6-fluoro-5-hydroxy-1H-1,3-benzodiazol-2-yl)-4-{[(1R)-1-phenylbutyl]carbamoyl}-[1,1′-biphenyl]-2-carboxylic acid], the 50% effective concentration (EC50) was < 10 nM under setting [1] and < 10 nM under setting [2].
For `CCC[C@@H](NC(=O)c1ccc(-c2c(Cl)cccc2-c2nc3ccc(F)c(F)c3[nH]2)c(C(=O)O)c1)c1ccccc1` (atropisomer, axis not shown) [Example 88, (S)-2′-chloro-6′-(6,7-difluoro-1H-1,3-benzodiazol-2-yl)-4-{[(1R)-1-phenylbutyl]carbamoyl}-[1,1′-biphenyl]-2-carboxylic acid], under setting [2], the 50% effective concentration (EC50) is < 10 nM.
For the molecule `CCC[C@@H](NC(=O)c1ccc(-c2c(Cl)cccc2-c2nc3cc(F)c(F)cc3[nH]2)c(C(=O)O)c1)c1ccccc1` (atropisomer, axis not shown) [Example 89, (S)-2′-chloro-6′-(5,6-difluoro-1H-1,3-benzodiazol-2-yl)-4-{[(1R)-1-phenylbutyl]carbamoyl}-[1,1′-biphenyl]-2-carboxylic acid], the 50% effective concentration (EC50) was < 10 nM under setting [1] and < 10 nM under setting [2].
`CCC[C@@H](NC(=O)c1ccc(-c2c(Cl)cccc2-c2nc3cc(F)cc(F)c3[nH]2)c(C(=O)O)c1)c1ccccc1` (atropisomer, axis not shown) [Example 90, (S)-2′-chloro-6′-(5,7-difluoro-1H-1,3-benzodiazol-2-yl)-4-{[(1R)-1-phenylbutyl]carbamoyl}-[1,1′-biphenyl]-2-carboxylic acid]: the EC50 was < 10 nM under setting [1] and < 10 nM under setting [2].
In the case of `CCC[C@@H](NC(=O)c1ccc(-c2c(Cl)cccc2-c2nc3cccc(O)c3[nH]2)c(C(=O)O)c1)c1ccccc1` (atropisomer, axis not shown) [Example 92, (S)-2′-chloro-6′-(7-hydroxy-1H-1,3-benzodiazol-2-yl)-4-{[(1R)-1-phenlylbutyl]carbamoyl}-[1,1′-biphenyl]-2-carboxylic acid], the EC50 was < 10 nM under setting [1] and < 10 nM under setting [2].
Regarding `CCC[C@@H](NC(=O)c1ccc(-c2c(Cl)cccc2-c2nc3cc(Cl)cc(Cl)c3[nH]2)c(C(=O)O)c1)c1ccccc1` (atropisomer, axis not shown) [Example 94, (S)-2′-chloro-6′-(5,7-dichloro-1H-1,3-benzodiazol-2-yl)-4-{[(1R)-1-phenylbutyl]carbamoyl}-[1,1′-biphenyl]-2-carboxylic acid], the EC50 under setting [1] was < 10 nM and the EC50 under setting [2] was < 10 nM.
As for `CCC[C@@H](NC(=O)c1ccc(-c2c(Cl)cccc2-c2nc3cc(Cl)cc(C)c3[nH]2)c(C(=O)O)c1)c1ccccc1` (atropisomer, axis not shown) [Example 95, (S)-2′-chloro-6′-(5-chloro-7-methyl-1H-1,3-benzodiazol-2-yl)-4-{[(1R)-1-phenylbutyl]carbamoyl}-[1,1′-biphenyl]-2-carboxylic acid], the half-maximal effective concentration (EC50) by setting is: under setting [1], < 10 nM; under setting [2], < 10 nM.
With `CCC[C@@H](NC(=O)c1ccc(-c2c(Cl)cccc2-c2nc3cc(F)cc(F)c3[nH]2)c(C(=O)O)c1)c1ccccc1` (atropisomer, axis not shown) [Example 96, (S)-2′-chloro-6′-(5,7-difluoro-1H-1,3-benzodiazol-2-yl)-4-{[(1R)-1-phenylbutyl]carbamoyl}-[1,1′-biphenyl]-2-carboxylic acid], the EC50 under setting [1] was < 10 nM.
Regarding `CCC[C@@H](NC(=O)c1ccc(-c2c(Cl)cccc2-c2nc3cc(Cl)c(C)cc3[nH]2)c(C(=O)O)c1)c1ccccc1` (atropisomer, axis not shown) [Example 97, (S)-2′-chloro-6′-(5-chloro-6-methyl-1H-1,3-benzodiazol-2-yl)-4-{[(1R)-1-phenylbutyl]carbamoyl}-[1,1′-biphenyl]-2-carboxylic acid], the 50% effective concentration (EC50) under setting [2] lay in the range of 10 to 100 nM.
On the same count and under the same terms, next, `CCC[C@@H](NC(=O)c1ccc(-c2c(Cl)cccc2-c2nc3c(OC)ccc(OC)c3[nH]2)c(C(=O)O)c1)c1ccccc1` (atropisomer, axis not shown) [Example 98, (S)-2′-chloro-6′-(4,7-dimethoxy-1H-1,3-benzodiazol-2-yl)-4-{[(1R)-1-phenylbutyl]carbamoyl}-[1,1′-biphenyl]-2-carboxylic acid]: 10 to 100 nM.
Turning to `CCC[C@@H](NC(=O)c1ccc(-c2c(Cl)cccc2-c2nc3cccc(O)c3[nH]2)c(C(=O)O)c1)c1ccccc1` (atropisomer, axis not shown) [Example 99, (S)-2′-chloro-6′-(7-hydroxy-1H-1,3-benzodiazol-2-yl)-4-{[(1R)-1-phenylbutyl]carbamoyl}-[1,1′-biphenyl]-2-carboxylic acid], the half-maximal effective concentration (EC50) under setting [1] lay within 10 to 100 nM and the EC50 under setting [2] was in the range of 10 to 100 nM.
With `CCC[C@@H](NC(=O)c1ccc(-c2c(Cl)cccc2-c2ncc(-c3ccccc3)[nH]2)c(C(=O)O)c1)c1ccccc1` (atropisomer, axis not shown) [Example 102, (S)-2′-chloro-6′-(5-phenyl-1H-imidazol-2-yl)-4-{[(1R)-1-phenylbutyl]carbamoyl}-[1,1′-biphenyl]-2-carboxylic acid], the EC50 is < 10 nM under setting [1] and < 10 nM under setting [2].
For the molecule `CCC[C@@H](NC(=O)c1ccc(-c2c(Cl)cccc2-c2ncc(-c3cccc(OC)c3)[nH]2)c(C(=O)O)c1)c1ccccc1` (atropisomer, axis not shown) [Example 103, (S)-2′-chloro-6′-[5-(3-methoxyphenyl)-1H-imidazol-2-yl]-4-{[(1R)-1-phenylbutyl]carbamoyl}-[1,1′-biphenyl]-2-carboxylic acid], the 50% effective concentration (EC50) reads like this: under setting [1], < 10 nM; under setting [2], < 10 nM.
Take `CCC[C@@H](NC(=O)c1ccc(-c2c(Cl)cccc2-c2ncc(-c3ccc(C)c(F)c3)[nH]2)c(C(=O)O)c1)c1ccccc1` (atropisomer, axis not shown) [Example 104, (S)-2′-chloro-6′-[5-(3-fluoro-4-methylphenyl)-1H-imidazol-2-yl]-4-{[(1R)-1-phenylbutyl]carbamoyl}-[1,1′-biphenyl]-2-carboxylic acid]: the EC50 is < 10 nM under setting [1] and < 10 nM under setting [2].
